Results taken from patent publication US4609655A, “Anti-ulcer imidazo-quinoline, indole and benzazepine derivatives” (John Wyeth & Brother, Ltd., priority 1983, dated 1986).
Read-outs that look alike come from different tables or passages of the source.

Columns and labels:
H^+ /K^+ ATPase = target: T1, H^+ /K^+ ATPase (Oryctolagus cuniculus, UniProt P27112); test: Inhibition of 14C-aminopyrine uptake in rabbit isolated gastric glands stimulated by DBcAMP or high K+ (H+/K+ ATPase inhibition); assay type: cell-based; conditions: compound at 10^-4 M, % inhibition of maximum response
T1 construct: Rabbit gastric glands are isolated from gastric mucosa; from tissue; host or cells: isolated gastric glands from gastric mucosa of the corpus region of rabbit stomach
Experimental: Compounds of formula I were also tested for anti-secretory activity by their ability to inhibit the highly specific proton transporting enzyme H^+ /K^+ ATPase.
Potential H+/K^+ ATPase inhibitors are evaluated by a technique involving the measurement of aminopyrine accumulation in rabbit isolated gastric glands. Amino-pyrine, which is a weak base, accumulates in acid-secreting cells; therefore, uptake of aminopyrine is increased by secretagogues and an inhibitor of acid secretion will reduce the response to one or more secretagogues depending upon its site of action. Compounds which reduce the response to dibutyryl cyclic adenosine monophosphate (DBcAMP) stimulation are assumed to have an intracellular site of action, and those which reduce the response to both DBcAMP and high potassium ion concentration (K^+) are thought to have an intracellular site of action at the secretory surface of the parietal cell, involving the highly specific proton--transporting enzyme, H^+ /K^+ ATPase. The following test procedure is used:
Rabbit gastric glands are isolated from gastric mucosa from the corpus region of the stomach by a method based on one described by Berglindh T., Obrink K. J., Acta Physiol. Scand. 96, 150-159 (1976). Measurement of aminopyrine uptake is carried out using a modification of the method described by Berglindh T., Hellander H. F., Obrink K. J. (ibid, 97, 401-414, 1976).
Compounds are tested at a concentration of 10^-4 M, initially, and in some cases at lower concentrations, for their ability to inhibit ^14 C-aminopyrine uptake in gastric glands, stimulated by DBcAMP and high K^+ respectively. Results are expressed as the % inhibition of the maximum response to the secretagogue induced by the test compound. An inhibitor of H^+ /K^+ ATPase would be expected to reduce the response to both secretagogues.

[1] = Stress-induced erosion test of Senay and Levine (anti-ulcer activity); assay type: in vivo; conditions: Dose 100 mg/kg
Experimental: Anti-ulcer activity was determined by the stressinduced erosion test of Senay and Levine, Proc. Soc. Exp. Biol. Med., 124, 1221-3 (1967).

[2] = DBcAMP stimulation, read-out: % Inhibition to Stimulation by DBcAMP at 10^-4
[3] = high K+ stimulation, read-out: % Inhibition to Stimulation by K^+ at 10^-4

T1 sequence (P27112 whole entry): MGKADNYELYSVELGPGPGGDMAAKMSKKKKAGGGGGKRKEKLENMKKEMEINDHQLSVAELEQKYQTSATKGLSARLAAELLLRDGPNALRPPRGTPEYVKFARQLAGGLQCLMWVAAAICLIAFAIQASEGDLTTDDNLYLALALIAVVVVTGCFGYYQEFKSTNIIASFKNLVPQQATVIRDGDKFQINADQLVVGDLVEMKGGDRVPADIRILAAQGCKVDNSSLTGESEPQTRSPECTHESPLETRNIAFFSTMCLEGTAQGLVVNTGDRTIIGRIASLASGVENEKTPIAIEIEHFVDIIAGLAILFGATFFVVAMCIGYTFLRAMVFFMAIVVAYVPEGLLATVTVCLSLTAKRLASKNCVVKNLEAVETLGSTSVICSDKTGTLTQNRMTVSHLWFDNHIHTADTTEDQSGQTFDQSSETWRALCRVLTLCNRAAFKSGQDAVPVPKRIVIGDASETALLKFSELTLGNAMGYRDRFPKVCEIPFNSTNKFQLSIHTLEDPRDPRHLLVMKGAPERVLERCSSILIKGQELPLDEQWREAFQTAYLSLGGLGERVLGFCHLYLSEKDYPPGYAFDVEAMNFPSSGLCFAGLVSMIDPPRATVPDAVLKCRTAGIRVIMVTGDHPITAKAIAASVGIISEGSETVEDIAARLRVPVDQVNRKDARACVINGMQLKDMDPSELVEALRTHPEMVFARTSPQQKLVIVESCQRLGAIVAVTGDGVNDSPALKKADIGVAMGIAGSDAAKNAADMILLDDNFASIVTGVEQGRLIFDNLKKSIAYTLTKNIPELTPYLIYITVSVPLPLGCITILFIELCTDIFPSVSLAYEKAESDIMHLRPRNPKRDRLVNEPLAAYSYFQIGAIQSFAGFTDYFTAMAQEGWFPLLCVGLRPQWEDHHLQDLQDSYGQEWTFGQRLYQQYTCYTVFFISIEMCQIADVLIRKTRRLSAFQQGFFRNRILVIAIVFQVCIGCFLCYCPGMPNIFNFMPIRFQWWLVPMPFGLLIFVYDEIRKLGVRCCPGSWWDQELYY
T1 sequence (P18597 whole entry partner): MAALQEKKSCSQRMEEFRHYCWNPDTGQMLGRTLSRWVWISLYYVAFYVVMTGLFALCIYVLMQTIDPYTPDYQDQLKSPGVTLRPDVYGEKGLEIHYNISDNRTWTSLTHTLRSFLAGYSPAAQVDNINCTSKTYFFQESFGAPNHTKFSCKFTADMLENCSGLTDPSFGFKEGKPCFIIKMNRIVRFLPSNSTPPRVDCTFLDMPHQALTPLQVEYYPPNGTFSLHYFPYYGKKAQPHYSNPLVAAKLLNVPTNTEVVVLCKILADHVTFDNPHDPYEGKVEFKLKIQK

SMILES	inhibition at 100 µM (H^+ /K^+ ATPase; [2]) [%]	inhibition at 100 µM (H^+ /K^+ ATPase; [3]) [%]	Stress Induced Erosion (Senay & Levine) % Inhibition [1] [%]
Clc1cccc(CSc2nc3cccc4c3n2CCC4)c1 [Example 2, 2-(3-Chlorobenzylthio)-5,6,-dihydro-[4H]-imidazo[4,5,1,-ij]quinoline]	69	54	
Fc1ccc(CSc2nc3cccc4c3n2CCC4)cc1 [Example 3, 5,6-Dihydro-2-(4-fluorophenylmethylthio)-[4H]-imidazo-[4,5,1,-ij]quinoline]	6.7	76	62
c1ccc(CSc2nc3cccc4c3n2CCC4)cc1 [Example 1, 2-Benzylthio-5,6,-dihydro-[4H]-imidazo [4,5,1-ij]-quinoline]	70	111	83
Clc1ccccc1CSc1nc2cccc3c2n1CCC3 [Example 4, 2-(2-Chlorophenylmethylthio)-5,6-dihydro-[4H]-imidazo-[4,5,1-ij]quinoline]	32.9	83.5	55

More lines, main results first:

inhibition at 100 µM (H^+ /K^+ ATPase; [2]) [%]	inhibition at 100 µM (H^+ /K^+ ATPase; [3]) [%]	SMILES	Stress Induced Erosion (Senay & Levine) % Inhibition [1] [%]
40	63	C1=Cc2cccc3nc(SCc4ccccc4)n(c23)C1 [Example 7, 2-Benzylthio-[4H]-imidazo[4,5,1-ij]quinoline]	54
40.6	93	Fc1ccccc1CSc1nc2cccc3c2n1CCC3 [Example 6, 5,6-Dihydro-2-(2-fluorophenylmethylthio)-[4H]-imidazo-[4,5,1-ij]quinoline]	
53	109	Clc1ccc(CSc2nc3cccc4c3n2CCC4)cc1 [Example 5, 2-(4-Chlorophenylmethylthio)-5,6-dihydro-[4H]-imidazo-[4,5,1-ij]quinoline]	
